Data from PubChem BioAssay (NCI).
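Five compound concentrations were applied to cells in 96-well plates for 48 hours; endpoints were derived by simple linear interpolation of the resulting dose-response curve. GI50 marks 50% less growth. TGI: total growth inhibition.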

Tests used:
Assay in all cases: growth of human tumour cells (NCI), 48 h
UACC-257 melanoma = tested on: UACC-257 melanoma
SK-OV-3 ovarian = tested on: SK-OV-3 ovarian
COLO 205 colon = tested on: COLO 205 colon
A549 NSCLC = tested on: A549 NSCLC
SF-539 CNS = tested on: SF-539 CNS
OVCAR-8 ovarian = tested on: OVCAR-8 ovarian
UO-31 renal = tested on: UO-31 renal
OVCAR-5 ovarian = tested on: OVCAR-5 ovarian
ACHN renal = tested on: ACHN renal
NCI-H460 lung = tested on: NCI-H460 lung

Structure (SMILES) | TGI (UACC-257 melanoma) | TGI (SK-OV-3 ovarian) | TGI (COLO 205 colon) | TGI (A549 NSCLC) | TGI (SF-539 CNS) | TGI (OVCAR-8 ovarian) | TGI (UO-31 renal) | TGI (OVCAR-5 ovarian) | TGI (ACHN renal) | TGI (NCI-H460 lung) | GI50 (UACC-257 melanoma) | GI50 (SK-OV-3 ovarian) | GI50 (COLO 205 colon) | GI50 (A549 NSCLC) | GI50 (SF-539 CNS) | GI50 (OVCAR-8 ovarian) | GI50 (UO-31 renal) | GI50 (OVCAR-5 ovarian) | GI50 (ACHN renal) | GI50 (NCI-H460 lung)
O=C1C2C(C(=O)N1Cc1ccccc1)N(Cc1ccccc1)C(=O)N2Cc1ccccc1 (stereo not drawn) | > 100 µM | > 100 µM | > 100 µM | > 100 µM | > 100 µM | > 100 µM | > 100 µM | > 100 µM | > 100 µM | > 100 µM | – | – | – | – | – | – | – | – | – | –
CC(=O)Nc1cccc(C#Cc2cncnc2Nc2ccc(OCc3cccc(F)c3)c(Cl)c2)c1 | > 25 µM | > 25 µM | > 25 µM | > 25 µM | > 25 µM | 24.9 µM | > 25 µM | > 25 µM | > 25 µM | > 25 µM | 13.7 µM | 6.14 µM | 9.17 µM | 5.87 µM | 14.9 µM | 6.35 µM | 3.55 µM | 12.7 µM | 6.09 µM | 8.94 µM
C[n+]1cn(CC(=O)c2ccccc2)c(C(N)=O)c1N | > 100 µM | > 100 µM | > 100 µM | > 100 µM | > 100 µM | > 100 µM | > 100 µM | > 100 µM | > 100 µM | > 100 µM | – | – | – | – | – | – | – | – | – | –
C/C(=C/CCC(C)[C@@H]1CC[C@]2(C)C3=C(CC[C@@]12C)[C@@]1(C)CCC(=O)C(C)(C)[C@@H]1CC3)C(=O)O (stereo partly drawn) | 3.06 µM | 3.18 µM | 3.6 µM | 1.84 µM | 2.93 µM | 3.2 µM | 2.44 µM | 3.29 µM | 2.73 µM | 4.02 µM | 1.56 µM | 1.78 µM | 1.86 µM | 0.387 µM | 1.37 µM | 1.42 µM | 1.08 µM | 1.68 µM | 1.29 µM | 1.28 µM
C/C(=N\NC(=S)N1CCC1)c1ccccn1 | 1.42 µM | 5.7 µM | > 100 µM | 37.5 µM | 5.31 µM | 12 µM | 15.3 µM | 49.9 µM | 34.6 µM | 6.33 µM | 0.00326 µM | – | 0.00486 µM | 0.0527 µM | 0.0629 µM | 0.00715 µM | 0.0188 µM | 0.00689 µM | 0.00656 µM | 0.07 µM
C#COc1cccc(Nc2ncnc3cc(NC(=O)[C@@H](C)Cl)ccc23)c1 | > 62.5 µM | > 62.5 µM | > 62.5 µM | > 62.5 µM | 46 µM | > 62.5 µM | > 62.5 µM | > 62.5 µM | > 62.5 µM | > 62.5 µM | > 62.5 µM | 19.6 µM | 5.3 µM | 9.86 µM | 8.61 µM | 18.1 µM | 17.8 µM | 18 µM | 18.9 µM | 7.63 µM
CCc1ccc(Oc2c(-c3ccc(OCc4ccc(Cl)cc4)cc3O)nn(C)c2C(F)(F)F)cc1 | 3.53 µM | 4.98 µM | 1.73 µM | 1.95 µM | 3.75 µM | 3.79 µM | 1.63 µM | 3.85 µM | 1.7 µM | 1.31 µM | 1.18 µM | 1.63 µM | 0.457 µM | 0.514 µM | 1.77 µM | 1.35 µM | 0.432 µM | 1.75 µM | 0.385 µM | 0.356 µM
O=c1c2ccccc2nc(-c2cccc(Cl)c2)n1NC1OC(CO)C(O)C(O)C1O (stereo not drawn) | > 100 µM | > 100 µM | > 100 µM | > 100 µM | > 100 µM | > 100 µM | > 100 µM | > 100 µM | > 100 µM | > 100 µM | – | – | – | – | – | – | – | – | – | –
COc1ccc(-c2cnc(-c3ccncc3-c3cccc(OC)c3)o2)cc1 | 15.8 µM | 17.1 µM | 1.23 µM | 11.3 µM | 0.0776 µM | 15.3 µM | 14.2 µM | 23.5 µM | 14.7 µM | 4.03 µM | 0.403 µM | 0.0424 µM | 0.0375 µM | 0.0409 µM | 0.0268 µM | 0.0484 µM | 0.0896 µM | 0.0809 µM | 0.138 µM | 0.0365 µM
OCCNc1nc2ccccc2c2[nH]c3ccccc3c12 | 2.33 µM | 2.07 µM | 1.37 µM | 2.19 µM | 3.68 µM | 4.7 µM | 1.37 µM | 7.55 µM | 2.67 µM | 1.24 µM | 0.944 µM | 0.329 µM | 0.329 µM | 0.394 µM | 0.615 µM | 0.455 µM | 0.297 µM | 1.13 µM | 0.278 µM | 0.305 µM
Oc1cn(-c2ccc(Cl)cc2)nc1-c1n[nH]c(=S)n1-c1ccc(F)cc1 | 77.4 µM | > 100 µM | > 100 µM | 56 µM | 34.9 µM | > 100 µM | > 100 µM | > 100 µM | > 100 µM | 40.8 µM | 24.2 µM | > 100 µM | 61.4 µM | 13.2 µM | 15.1 µM | 27.3 µM | 25 µM | 32 µM | 28.8 µM | 11.9 µM
Nc1c(C(=O)Nc2ccccc2)sc2nc3c(cc12)C(=O)CCC3 | > 100 µM | > 100 µM | 2.99 µM | > 100 µM | > 26.1 µM | > 100 µM | > 100 µM | > 100 µM | > 100 µM | – | 0.57 µM | 0.412 µM | 0.364 µM | 0.436 µM | 0.384 µM | 2.46 µM | > 27.3 µM | 1.28 µM | 0.948 µM | 0.346 µM
Cc1ccc(C(=O)Nc2ccc(Oc3cc4cnn(C)c4cc3-c3cn[nH]c3)c(F)c2)c(=O)n1-c1ccc(F)cc1 | > 100 µM | > 100 µM | > 100 µM | > 100 µM | > 100 µM | > 100 µM | > 100 µM | > 100 µM | > 100 µM | > 100 µM | 6.8 µM | > 100 µM | 5.36 µM | 7.6 µM | 1.37 µM | 48.8 µM | > 100 µM | 10.9 µM | 2.9 µM | 8.12 µM
CN(C)CCNC(=O)Nc1ccc(N(C)c2ccnc(Nc3ccc(CS(C)(=O)=O)cc3)n2)cc1 | > 25 µM | > 25 µM | > 25 µM | > 25 µM | > 25 µM | > 25 µM | > 25 µM | > 25 µM | > 25 µM | > 25 µM | > 25 µM | > 25 µM | > 25 µM | > 25 µM | > 20.9 µM | > 25 µM | > 25 µM | > 25 µM | > 25 µM | > 25 µM
